pIC50: −log10 of the molar value.
The compounds below were run against T1, ATM (Homo sapiens, UniProt Q13315) (assay: ATM inhibition test (phosphorylation of Chk2 generated by ionizing radiation, AlphaScreen SureFire)). Settings: phosphorylated Chk2 in NCI-H460 cells, ionizing radiation 8Gy, 1 hour after test compound treatment; read-out: ATM inhibitory activity.
T1 construct: detecting phosphorylation of Chk2 in a human non-small cell lung cancer cell line NCI-H460 (ATCC company); host or cells: NCI-H460 human non-small cell lung cancer cells
T1 sequence (Q13315 whole entry): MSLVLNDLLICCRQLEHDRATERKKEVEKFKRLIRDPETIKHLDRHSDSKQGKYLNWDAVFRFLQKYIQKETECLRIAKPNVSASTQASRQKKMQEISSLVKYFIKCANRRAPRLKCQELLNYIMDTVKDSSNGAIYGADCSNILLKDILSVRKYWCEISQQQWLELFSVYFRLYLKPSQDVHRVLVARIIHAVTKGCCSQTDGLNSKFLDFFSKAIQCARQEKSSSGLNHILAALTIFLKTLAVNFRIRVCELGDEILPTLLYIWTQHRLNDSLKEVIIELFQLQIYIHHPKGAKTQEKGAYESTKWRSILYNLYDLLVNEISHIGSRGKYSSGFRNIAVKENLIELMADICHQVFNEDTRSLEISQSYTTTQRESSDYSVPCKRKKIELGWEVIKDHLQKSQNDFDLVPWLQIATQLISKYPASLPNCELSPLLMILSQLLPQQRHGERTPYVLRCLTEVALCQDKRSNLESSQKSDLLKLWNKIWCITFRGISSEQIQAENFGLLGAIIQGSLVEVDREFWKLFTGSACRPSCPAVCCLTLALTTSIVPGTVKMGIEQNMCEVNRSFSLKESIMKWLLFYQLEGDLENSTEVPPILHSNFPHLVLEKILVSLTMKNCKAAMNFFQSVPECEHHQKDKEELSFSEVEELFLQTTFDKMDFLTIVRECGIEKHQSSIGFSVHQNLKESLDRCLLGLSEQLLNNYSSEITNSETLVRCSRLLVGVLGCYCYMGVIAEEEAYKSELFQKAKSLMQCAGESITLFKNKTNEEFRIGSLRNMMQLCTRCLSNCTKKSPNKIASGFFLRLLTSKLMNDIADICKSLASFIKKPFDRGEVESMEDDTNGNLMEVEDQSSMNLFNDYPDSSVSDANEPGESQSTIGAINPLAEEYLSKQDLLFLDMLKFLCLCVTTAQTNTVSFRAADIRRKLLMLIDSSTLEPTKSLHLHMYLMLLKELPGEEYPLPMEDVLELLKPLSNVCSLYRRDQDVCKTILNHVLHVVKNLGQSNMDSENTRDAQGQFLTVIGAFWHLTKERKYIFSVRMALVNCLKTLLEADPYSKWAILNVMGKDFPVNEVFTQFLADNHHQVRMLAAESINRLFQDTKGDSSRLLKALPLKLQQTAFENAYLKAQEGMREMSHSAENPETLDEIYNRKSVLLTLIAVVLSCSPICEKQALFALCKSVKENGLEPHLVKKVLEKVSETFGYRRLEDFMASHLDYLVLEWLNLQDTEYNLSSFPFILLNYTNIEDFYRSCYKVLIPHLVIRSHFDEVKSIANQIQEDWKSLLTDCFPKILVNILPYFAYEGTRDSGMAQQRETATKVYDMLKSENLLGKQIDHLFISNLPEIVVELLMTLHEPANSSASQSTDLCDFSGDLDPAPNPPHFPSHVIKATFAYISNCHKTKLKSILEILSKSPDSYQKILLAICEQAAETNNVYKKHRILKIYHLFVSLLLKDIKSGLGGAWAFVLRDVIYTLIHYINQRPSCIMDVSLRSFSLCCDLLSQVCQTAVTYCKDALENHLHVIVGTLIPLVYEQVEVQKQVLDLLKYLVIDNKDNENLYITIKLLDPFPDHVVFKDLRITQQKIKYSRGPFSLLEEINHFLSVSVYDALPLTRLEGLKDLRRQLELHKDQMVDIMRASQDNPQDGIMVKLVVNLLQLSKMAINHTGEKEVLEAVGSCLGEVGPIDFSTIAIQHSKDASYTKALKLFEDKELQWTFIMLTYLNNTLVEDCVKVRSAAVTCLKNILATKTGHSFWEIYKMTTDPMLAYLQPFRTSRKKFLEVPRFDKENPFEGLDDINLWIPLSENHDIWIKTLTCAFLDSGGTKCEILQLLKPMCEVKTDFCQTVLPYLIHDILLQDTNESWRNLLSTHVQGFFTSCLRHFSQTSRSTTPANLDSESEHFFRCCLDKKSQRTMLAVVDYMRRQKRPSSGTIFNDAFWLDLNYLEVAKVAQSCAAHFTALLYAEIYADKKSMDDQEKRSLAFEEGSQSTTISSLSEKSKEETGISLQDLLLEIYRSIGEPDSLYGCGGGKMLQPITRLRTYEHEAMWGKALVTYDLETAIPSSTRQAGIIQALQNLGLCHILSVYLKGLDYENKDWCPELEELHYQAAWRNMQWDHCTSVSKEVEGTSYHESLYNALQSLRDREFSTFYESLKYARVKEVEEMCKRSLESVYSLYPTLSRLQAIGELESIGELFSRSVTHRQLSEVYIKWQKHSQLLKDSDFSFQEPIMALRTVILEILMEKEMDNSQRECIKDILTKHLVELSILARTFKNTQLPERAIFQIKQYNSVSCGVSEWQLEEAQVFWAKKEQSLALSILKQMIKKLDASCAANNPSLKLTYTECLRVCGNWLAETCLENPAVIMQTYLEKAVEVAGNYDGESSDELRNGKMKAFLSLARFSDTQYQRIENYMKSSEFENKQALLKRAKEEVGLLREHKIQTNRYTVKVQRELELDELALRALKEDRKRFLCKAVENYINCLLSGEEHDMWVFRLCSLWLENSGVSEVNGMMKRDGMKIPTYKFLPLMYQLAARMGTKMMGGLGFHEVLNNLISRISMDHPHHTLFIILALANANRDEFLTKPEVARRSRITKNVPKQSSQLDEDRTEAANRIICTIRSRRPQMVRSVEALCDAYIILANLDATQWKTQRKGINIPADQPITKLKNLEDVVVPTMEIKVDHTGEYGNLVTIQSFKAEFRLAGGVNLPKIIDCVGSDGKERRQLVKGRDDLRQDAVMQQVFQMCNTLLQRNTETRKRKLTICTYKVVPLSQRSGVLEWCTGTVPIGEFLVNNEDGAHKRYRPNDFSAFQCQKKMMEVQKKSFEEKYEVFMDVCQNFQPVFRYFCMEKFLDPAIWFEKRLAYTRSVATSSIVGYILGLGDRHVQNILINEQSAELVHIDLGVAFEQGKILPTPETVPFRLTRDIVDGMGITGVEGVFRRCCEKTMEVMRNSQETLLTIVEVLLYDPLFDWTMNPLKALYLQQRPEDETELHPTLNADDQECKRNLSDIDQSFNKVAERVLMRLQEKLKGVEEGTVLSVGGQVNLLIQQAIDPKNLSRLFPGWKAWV
Type: cell-based
Outline: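 NCI-H460 cells, compound 1 h pre-treatment, 8Gy IR, further 1 h at 37° C in 5% CO2. Read-out: phospho-Chk2 via AlphaScreen SureFire. % inhibition relative to IR-induced signal window (irradiated vs non-irradiated drug-free wells).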
O=c1cc(N2CCOCC2)cc(-c2cccc3c2Sc2ccc(NC4CCN(Cc5ccccn5)CC4)cc2S3)[nH]1 [Example 1-24-19, 4-Morpholino-6-(7-((1-(pyridin-2-ylmethyl)piperidin-4-yl)amino)thianthren-1-yl)pyridin-2 (1H)-one] gave a pIC50 of 6.30 to 7.00.
In the case of COc1cc(CNc2ccc3c(c2)Cc2cccc(-c4cc(N5CCOCC5)cc(=O)[nH]4)c2O3)ccn1 [Example 2-22-1, 6-(7-(((2-methoxypyridin-4-yl)methyl)amino)-9H-xanthen-4-yl)-4-morpholinopyridin-2(1H)-one], the pIC50 was 6.30 to 7.00.
For CNc1ncc(CN2CCC(Nc3ccc4c(c3)Cc3cccc(-c5cc(N6CCOCC6)cc(=O)[nH]5)c3O4)CC2)cn1 [Example 2-28-12, 6-(7-((1-((2-(Methylamino)pyrimidin-5-yl)methyl)piperidin-4-yl)amino)-9H-xanthen-4-yl)-4-morpholino pyridin-2 (1H)-one], the pIC50 was 5.70 to 6.30.
O=c1cc(N2CCOCC2)cc(-c2cccc3c2Oc2ccc(NC4CCCN(CCc5ccccc5)CC4)cc2C3)[nH]1 (stereo not drawn) [Example 2-19-5, 4-Morpholino-6-(7-((1-phenethylazepan-4-yl)amino)-9H-xanthen-4-yl)pyridin-2(1H)-one] was tested, and the pIC50 was 6.30 to 7.00.
With CC1CC(Nc2ccc3c(c2)Cc2cccc(-c4cc(N5CCOCC5)cc(=O)[nH]4)c2O3)CCN1C(=O)OC(C)(C)C (stereo not drawn) [Example 2-14-84, tert-Butyl 2-methyl-4-((5-(4-morpholino-6-oxo-1,6-dihydropyridin-2-yl)-9H-xanthen-2-yl)amino) piperidine-1-carboxylate] the pIC50 was 5.70 to 6.30.
Work on O=c1cc(N2CCOCC2)cc(-c2cccc3c2Oc2ccc(NC4CCN(CC(O)c5ccccc5)CC4)cc2C3)[nH]1 (stereo not drawn) [Example 2-30-13, 6-(7-((1-(2-Hydroxy-2-phenylethyl)piperidin-4-yl)amino)-9H-xanthen-4-yl)-4-morpholino pyridin-2(1H)-one] yielded a pIC50 of 6.30 to 7.00.
With CCN1CCC(C(Nc2ccc3c(c2)Sc2cccc(-c4cc(N5CCOCC5)cc(=O)[nH]4)c2S3)c2ccc(C)cn2)CC1 (stereo not drawn) [Example 1-56-1, 6-(7-(((1-ethylpiperidin-4-yl)(5-methylpyridin-2-yl)methyl)amino)thianthren-1-yl)-4-morpholinopyridin-2(1H)-one] the pIC50 was > 7.00.
Compound Cc1cc(C(C)Nc2ccc3c(c2)Cc2cccc(-c4cc(N5CCOCC5)cc(=O)[nH]4)c2O3)ccn1 (stereo not drawn) [Example 2-14-28, 6-(7-((1-(2-Methylpyridin-4-yl)ethyl)amino)-9H-xanthen-4-yl)-4-morpholino pyridin-2(1H)-one] has a pIC50 of 6.30 to 7.00.
CN1CCC(Nc2ccc3c(c2)Sc2cccc(-c4cc(N5CCOCC5)cc(=O)[nH]4)c2O3)CC1 [Example 4-8-2, 6-(8-((1-Methylpiperidin-4-yl)amino)phenoxathiin-4-yl)-4-morpholino pyridin-2(1H)-one] was tested, and the pIC50 was 6.30 to 7.00.
For O=c1cc(N2CCOCC2)cc(-c2cccc3c2Oc2ccc(NCc4cncs4)cc2C3)[nH]1 [Example 2-14-37, 4-Morpholino-6-(7-((thiazol-5-ylmethyl)amino)-9H-xanthen-4-yl) pyridin-2(1H)-one], the pIC50 was 5.70 to 6.30.
Nc1ccc2c(c1)CCc1cccc(-c3cc(N4CCOCC4)cc(=O)[nH]3)c1O2 [Example 2-50, 6-(8-Amino-10,11-dihydrodibenz[b,f]oxepin-4-yl)-4-morpholinopyridin-2(1H)-one] showed a pIC50 of 5.70 to 6.30.
COCCCN1CCC(Nc2ccc3c(c2)Cc2cccc(-c4cc(N5CCOCC5)cc(=O)[nH]4)c2O3)CC1 [Example 2-30-15, 6-(7-((1-(3-Methoxypropyl)piperidin-4-yl)amino)-9H-xanthen-4-yl)-4-morpholino pyridin-2 (1H)-one] showed a pIC50 of 5.70 to 6.30.
O=c1cc(N2CCOCC2)cc(-c2cccc3c2Cc2ccc(NCc4ccc(Cl)nc4)cc2O3)[nH]1 [Example 6, 6-(6-(((6-chloropyridin-3-yl)methyl)amino)-9H-xanthen-1-yl)-4-morpholinopyridin-2(1H)-one] showed a pIC50 of 5.70 to 6.30.
CC(C)(C)NCCNc1ccc2c(c1)Sc1cccc(-c3cc(N4CCOCC4)cc(=O)[nH]3)c1S2 [Example 1-10-13, 6-(7-((2-(tert-Butylamino)ethyl)amino)thianthren-1-yl)-4-morpholino pyridin-2 (1H)-one] gave a pIC50 of 5.70 to 6.30.
With Cc1nccc(C(C)Nc2ccc3c(c2)Sc2cccc(-c4cc(N5CCOCC5)cc(=O)[nH]4)c2S3)n1 (single isomer, unassigned) [Example 1-12-141-2, 6-(7-((1-(2-methylpyrimidin-4-yl)ethyl)amino)thianthren-1-yl)-4-morpholinopyridin-2(1H)-one] the pIC50 was 6.30 to 7.00.
Compound CCC(C)C(Nc1ccc2c(c1)Sc1cccc(-c3cc(N4CCOCC4)cc(=O)[nH]3)c1S2)c1ccc(C)cn1 (stereo not drawn) [Example 1-12-122, 6-(7-((2-Methyl-1-(5-methylpyridin-2-yl)butyl)amino)thianthren-1-yl)-4-morpholino pyridin-2(1H)-one] has a pIC50 of 6.30 to 7.00.
In the case of Cc1ccnc(C(CO)Nc2ccc3c(c2)Sc2cccc(-c4cc(N5CCOCC5)cc(=O)[nH]4)c2S3)c1 (single isomer, unassigned) [Example 1-12-138-1, 6-(7-((2-hydroxy-1-(4-methylpyridin-2-yl)ethyl)amino)thianthren-1-yl)-4-morpholinopyridin-2(1H)-one], the pIC50 was 6.30 to 7.00.
Cc1ccc(C(Nc2ccc3c(c2)Sc2cccc(-c4cc(N5CCOCC5)cc(=O)[nH]4)c2S3)C2CCCC2)nc1 (stereo not drawn) [Example 1-12-125, 6-(7-((Cyclopentyl(5-methylpyridin-2-yl)methyl)amino)thianthren-1-yl)-4-morpholino pyridin-2(1H)-one] was tested, and the pIC50 was 6.30 to 7.00.
Work on COc1ccc(CNc2ccc3c(c2)Sc2cccc(-c4cc(N5CCOCC5)cc(=O)[nH]4)c2O3)cn1 [Example 4-8-11, 6-(8-(((6-Methoxypyridin-3-yl)methyl)amino)phenoxathiin-4-yl)-4-morpholino pyridin-2(1H)-one] yielded a pIC50 of 6.30 to 7.00.
With O=c1cc(N2CCOCC2)cc(-c2cccc3c2Sc2ccc(NC4CCN(CC(F)(F)F)CC4)cc2S3)[nH]1 [Example 1-25, 4-morpholino-6-(7-((1-(2,2,2-trifluoroethyl)piperidin-4-yl)amino)thianthren-1-yl)pyridin-2(1H)-one] the pIC50 was 6.30 to 7.00.
Nc1ccc2c(c1)Cc1cc(F)cc(-c3cc(N4CCOCC4)cc(=O)[nH]3)c1O2 [Example 2-48-1, 6-(7-amino-2-fluoro-9H-xanthen-4-yl)-4-morpholinopyridin-2(1H)-one] was tested, and the pIC50 was 5.70 to 6.30.
COc1cc(CNc2ccc3c(c2)Sc2cccc(-c4cc(N5CCOCC5)cc(=O)[nH]4)c2S3)cnc1OC [Example 1-12-7, 6-(7-(((5,6-Dimethoxypyridin-3-yl)methyl)amino)thianthren-1-yl)-4-morpholino pyridin-2(1H)-one] showed a pIC50 of 6.30 to 7.00.
O=c1cc(N2CCOCC2)cc(-c2cccc3c2Oc2ccc(NCc4ccnc(Cl)c4)cc2S3)[nH]1 [Example 4-8-14, 6-(8-(((2-Chloropyridin-4-yl)methyl)amino)phenoxathiin-4-yl)-4-morpholino pyridin-2(1H)-one] was tested, and the pIC50 was 6.30 to 7.00.
With Cc1cc(C(C)Nc2ccc3c(c2)Cc2cccc(-c4cc(N5CCOCC5)cc(=O)[nH]4)c2O3)ncn1 (stereo not drawn) [Example 2-14-52, 6-(7-((1-(6-Methylpyrimidin-4-yl)ethyl)amino)-9H-xanthen-4-yl)-4-morpholino pyridin-2 (1H)-one] the pIC50 was 6.30 to 7.00.
CC(Nc1ccc2c(c1)Cc1cccc(-c3cc(N4CCOCC4)cc(=O)[nH]3)c1O2)c1nccs1 (stereo not drawn) [Example 2-14-43, 4-Morpholino-6-(7-((1-(thiazol-2-yl)ethyl)amino)-9H-xanthen-4-yl)pyridin-2 (1H)-one] gave a pIC50 of 6.30 to 7.00.
COc1cncc(C(C)Nc2ccc3c(c2)Cc2cccc(-c4cc(N5CCOCC5)cc(=O)[nH]4)c2O3)n1 (stereo not drawn) [Example 2-14-57, 6-(7-((1-(6-Methoxypyrazin-2-yl)ethyl)amino)-9H-xanthen-4-yl)-4-morpholino pyridin-2(1H)-one] showed a pIC50 of 6.30 to 7.00.
In the case of Cc1cnc(C(CCN(C)C)CNc2ccc3c(c2)Sc2cccc(-c4cc(N5CCOCC5)cc(=O)[nH]4)c2S3)cn1 (stereo not drawn) [Example 12-3, 6-(7-((4-(Dimethylamino)-2-(5-methylpyrazin-2-yl)butyl)amino)thianthren-1-yl)-4-morpholinopyridin-2(1H)-one], the pIC50 was 6.30 to 7.00.
CC(Nc1ccc2c(c1)Sc1cccc(-c3cc(N4CCOCC4)cc(=O)[nH]3)c1S2)c1ncc(CO)cn1 (single isomer, unassigned) [Example 1-12-142-2, 6-(7-((1-(5-(hydroxymethyl)pyrimidin-2-yl)ethyl)amino)thianthren-1-yl)-4-morpholinopyridin-2(1H)-one] gave a pIC50 of 6.30 to 7.00.
In the case of O=c1cc(N2CCOCC2)cc(-c2cccc3c2Sc2ccc(NCc4cncs4)cc2S3)[nH]1 [Example 1-12-54, 4-Morpholino-6-(7-((thiazol-5-ylmethyl)amino)thianthren-1-yl)pyridin-2 (1H)-one], the pIC50 was 6.30 to 7.00.
COCC(CN1CCCCC1)Nc1ccc2c(c1)Sc1cccc(-c3cc(N4CCOCC4)cc(=O)[nH]3)c1S2 (stereo not drawn) [Example 1-17-2, 6-(7-((1-Methoxy-3-(piperidin-1-yl)propan-2-yl)amino)thianthren-1-yl)-4-morpholinopyridin-2(1H)-one] showed a pIC50 of 6.30 to 7.00.
In the case of COCCN(C)CCC(Nc1ccc2c(c1)Sc1cccc(-c3cc(N4CCOCC4)cc(=O)[nH]3)c1S2)c1cnc(C)cn1 (single isomer, unassigned) [Example 10-3-4, 6-(7-((3-((2-Methoxyethyl) (methyl)amino)-1-(5-methylpyrazin-2-yl)propyl)amino)thianthren-1-yl)-4-morpholino pyridin-2(1H)-one], the pIC50 was > 7.00.
Work on CC(Nc1ccc2c(c1)Sc1cccc(-c3cc(N4CCOCC4)cc(=O)[nH]3)c1S2)c1ccncn1 (stereo not drawn) [Example 1-12-74, 4-Morpholino-6-(7-((1-(pyrimidin-4-yl)ethyl)amino)thianthren-1-yl)pyridin-2 (1H)-one] yielded a pIC50 of 6.30 to 7.00.
O=c1cc(N2CCOCC2)cc(-c2cccc3c2Sc2ccc(NCCc4cccnc4)cc2S3)[nH]1 [Example 1-5, 4-morpholino-6-(7-((2-(pyridin-3-yl)ethyl)amino)thianthren-1-yl)pyridin-2(1H)-one] gave a pIC50 of 6.30 to 7.00.

— patent US9586951B2 (FUJIFILM Corporation, priority 2013, dated 2017)
